# Where two headings read alike, the source gives them in different places.
# Tests used:
# Wistar Kyoto (WKY) rats [1] = experiment: Elevated-plus maze (EPM) in WKY rats, acute treatment; assay type: in vivo, rat; conditions: MAP4343 10 mg/kg s.c., fluoxetine 10 mg/kg, ketamine 30 mg/kg i.p., FIG. 5D
# Protocol: After a 6-day period of acclimatization, all experimental groups received daily successive subcutaneous (250 μl per rat) and intraperitoneal (1 ml/kg) injections. WI rats received injection of vehicle (sesame oil+saline) while WKY rats were randomly assigned to […] experimental groups, as follow: KWY rats receiving only vehicle (sesame oil+saline) and WKY rats treated with MAP4343 (10 mg/kg, s.c.; rats received in parallel i.p. injections of saline), fluoxetine (10 mg/kg i.p., rats received in parallel s.c. injections of sesame oil) or ketamine (30 mg/kg, i.p.; rats received in parallel s.c. injections of sesame oil) (see FIG. 3).
# (§1) After, a 6-day period of acclimatization, the acute phase of treatment started for 4 days during behavioral tests were performed (FIG. 3). All animals were injected 1 h 30 before the starting of behavioral test.
# We used the elevated-plus maze (EPM) as an assay of anxiety-related behavior in rodents (Walf and Frye, 2007). […] The time spent in the open versus closed arms was blindly measured by two independent experimenters from the recorded video, and the open arm-index was calculated as follow: time in the open arms (sec)/[time in open arms (sec)+time in closed arms (sec)].
# MAP2 = experiment: Binding (affinity) by displacement of PREG-3H
# PC12 cells = conditions: cited from earlier work
# Wistar (WI) rats = experiment: Forced swimming test (FST) in WI rats, dose-ranging; assay type: in vivo, rat; conditions: FIG. 6A
# Protocol: as §1
# Rats were submitted to the forced swimming test (FST), according the procedure initially described by (Detke et al., 1995) and slightly modified by (Bianchi et al., 2002). Briefly, rats were individually placed into a Plexiglas cylinder (40 cm height, 20 cm diameter) containing 25 cm of water at 25±1° C., under 50 lux illumination. After a pre-test session of 15 min, rats were removed, dried and returned to its housed cage. Twenty-four hours after the pre-test session, rats were still placed in the swim cylinder (under identical conditions) for the 5-min test session. The pre-test and test sessions were recorded using a video camera placed above the cylinder for subsequent behavioral analysis. The immobility time (in sec) was blindly measured by two independent experimenters from recorded videos. Rats were considered as immobile when none activity was observed other than that required to keep the rat's head above the water.
# [2] = system: adult male Sprague Dawley rats; conditions: cited from earlier work
# Wistar Kyoto (WKY) rats [3] = experiment: Neurogenesis in dentate gyrus of hippocampus (BrdU/NeuN) in WKY rats; assay type: in vivo, rat; conditions: chronic MAP4343 15 mg/kg, s.c., 24 days, FIG. 9C
# Protocol: Wistar Kyoto (WKY) rats are considered as a model of treatment-resistant depression, while Wistar (WI) rats are used as control strain of WKY rats. During this experiment both WI and WKY rats were administered with MAP4343 (15 mg/Kg), subcutaneously (s.c.) for 24 days. Behavioral tests were performed at during the last week of treatment, and rats were finally sacrificed for addressing neurogenesis in Gyrus dentate of hippocampus using histological experiments. Organization of this protocol is depicted in FIG. 7.
# MAP4343 was diluted in sesame oil, and then administered subcutaneously (s.c.) at the dose of 15 mg/kg during 24 days. The vehicle group received only the sesame oil (1 ml/kg) in the similar conditions.
# Injections of BrdU were performed twice at D0, 24 and 22 hours before the beginning of treatment. All animals were equally given two injections of BrdU (75 mg/kg, dissolved in saline solution intraperitoneally), at two hours pulse-chase interval. […]
# Neurogenesis in each dentate gyrus was manually measured by quantification of positive cells co-labelled with BrdU/NeuN, using a microscope equipped with epifluorescence (Zeiss Axiovert 200, objective 40×). Total number of new neurons in the entire dentate gyrus was estimated by multiplying the measured number by 8 (that corresponds to the number of unused sections separating each coronal sections used to count the newly-formed neurons). […]
smiles,measurement,setting,value
"CO[C@H]1CC[C@@]2(C)C(=CC[C@H]3[C@@H]4CC[C@H](C(C)=O)[C@@]4(C)CC[C@@H]32)C1 [MAP4343, 3β-methoxy-pregna-5-ene-20-one]","open-arm (OA) index in EPM, change vs WKY receiving vehicle alone",Wistar Kyoto (WKY) rats [1],165%
same,Affinity,MAP2,100% of PREG
same,neurite extension,PC12 cells,enhance neurite extension
same,"immobility time in FST, change vs WI receiving vehicle alone",Wistar (WI) rats; MAP4343 10 mg/kg,−27%
same,"immobility time in FST, change vs WI receiving vehicle alone",Wistar (WI) rats; MAP4343 15 mg/kg,−31%
same,"immobility time in FST, dose-ranging effect","Wistar (WI) rats; MAP4343 1, 5, 10 and 15 mg/kg",dose-dependent reduction of immobility time
same,immobility in the forced swimming test,"[2]; naïve adult male Sprague Dawley rats, U.S. Pat. No. 8,334,278",decreases immobility
same,immobility in the forced swimming test,"[2]; social-isolated adult male Sprague Dawley rats, Bianchi and Baulieu, 2012",decreased immobility
same,"number of newly-formed neurons (BrdU and Neu-N) in dentate gyrus, change vs WKY receiving only vehicle",Wistar Kyoto (WKY) rats [3],+71%
